In US9988380B2, “Quorum sensing inhibitors” (priority 2013, dated 2018):
pIC50: −log10 of the molar value. Where two headings read alike, the source gives them in different places.

What was measured:
LasR = biological target: T1, LasR (Pseudomonas aeruginosa, UniProt P25084); experiment: AHL competition assay between QSI and OdDHL in heterologous E. coli lasB-gfp(ASV) strain; type: cell-based, P. aeruginosa
T1 construct: expressed in transfected cells; host or cells: E. coli lasB-gfp(ASV) reporter strain
T1 sequence (P25084 whole entry): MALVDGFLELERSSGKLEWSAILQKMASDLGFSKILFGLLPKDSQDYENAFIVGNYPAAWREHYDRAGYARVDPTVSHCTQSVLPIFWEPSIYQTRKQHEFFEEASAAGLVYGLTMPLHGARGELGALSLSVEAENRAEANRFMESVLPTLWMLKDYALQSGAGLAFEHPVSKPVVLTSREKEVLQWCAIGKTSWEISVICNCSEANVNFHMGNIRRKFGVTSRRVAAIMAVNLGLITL
Method: E. coli Competition Assay between QSI compounds and OdDHL. The E. coli lasB-gfp(ASV) reporter strain was used for the competition assay, which was performed in a similar manner to the P. aeruginosa LasR inhibition assay. OdDHL and the QSI to be studied were added to the wells of a microtitre plate containing ABTGC media. Wells without OdDHL and/or QSI were included as controls. An overnight culture of E. coli lasB-gfp(ASV) strain, grown in LB medium at 37° C. with shaking, was diluted to an OD600 of 0.2, and 100 μl of bacterial suspension was added to each well of the microtitre plate. […] GFP and OD600 readings were obtained as described above for the P. aeruginosa LasR inhibition assay.
AHL Competition Assay Using the Heterologous E. coli lasB-gfp (ASV) strain. The five QSI candidates were tested for their specificity in inhibiting the LasR receptor by incubating these QSIs with the E. coli lasB-gfp (ASV) reporter strain. LasR is under the control of the Lac promoter and is constitutively expressed, and only LasR can activate gfp expression in this system.

[1] = tested on: LasR-controlled GFP expression in P. aeruginosa PAO1 lasB-gfp(ASV) strain; experiment: P. aeruginosa QS inhibition assay with lasB-gfp(ASV) reporter strain; type: cell-based, Pseudomonas aeruginosa
Method: P. aeruginosa QS inhibition assays. Test compounds were dissolved in 100% DMSO and mixed with ABTGC media, after which they were added to the first column of wells of a 96-well microtitre plate (Nunc) to give a final concentration of 100 μM in a final volume of 200 μl. 100 μL of ABTGC media was then added to the remaining wells in the plate and serial two-fold dilutions of the inhibitors were done by adding 100 μL of the preceding inhibitor-containing well to the subsequent one. The final column was left without inhibitor as a control. Next, an overnight culture of P. aeruginosa lasB-gfp(ASV) strain, grown in LB medium at 37° C. with shaking, was diluted to an optical density (OD) at 600 nm of 0.2, and 100 μl of bacterial suspension was added to each well of the microtitre plate. […] The microtitre plate was incubated at 37° C. in a Tecan Infinite 200 Pro plate reader (Tecan Group Ltd., Männedorf, Switzerland). GFP fluorescence (excitation at 485 nm, emission at 535 nm) and cell density (OD600) measurements were collected at 15 min intervals for at least 14 h. The P. aeruginosa Rhl and Pqs inhibition assays were performed in a similar manner to the LasR inhibition assay.
Inhibition Assay with the P. aeruginosa lasB-gfp(ASV) strain. In the preliminary screen, the 22 selected QSI candidates were screened for their ability to inhibit QS-controlled green fluorescent protein (GFP) expression in the P. aeruginosa lasB-gfp(ASV) strain. Elastase (encoded by the lasB gene) is a virulence factor that is controlled by LasR and therefore a good indicator for LasR activity. […] For ease of identification, each compound was designated a short compound identification code based on its well position in the shipment in place of its standard IUPAC name.
The dose-response curves of these 5 QSI candidates when incubated with the P. aeruginosa PAO1 lasB-gfp(ASV) strain are shown in FIG. 3. GFP expression, which was measured in relative fluorescence units, was normalized by dividing the GFP value by the corresponding OD600 value measured at that time-point. ‘Control’ refers to the PAO1 strain grown without the presence of QSI, and as expected, it had the highest GFP per OD values. For these five compounds, dose-dependent inhibition of lasB-gfp expression was observed, i.e. the higher the concentration of QSI that was present, the greater the inhibition of gfp expression.
IC50 Value Comparisons of the Five QSI Candidates. The slope of the curve for each QSI was calculated based on its respective dose-response curves (from FIG. 3) and plotted against the log inhibitor concentration. The slope is indicative of the biosynthesis rate of GFP due to AHL induction. The half maximal inhibitory concentrations (IC50) of the five QSI candidates were calculated using the Graphpad Prism 6 software package (GraphPad Software Inc., CA, USA).

[2] = tested on: elastase production by P. aeruginosa PAO1; experiment: Elastase assay of culture supernatants (EnzChek Elastase Assay Kit); type: cell-based; details: 50 and 100 μM, 2 h cultivation
Method: Elastase Assay. P. aeruginosa PAO1 wild-type and an elastase negative lasI rhlI mutant were cultivated in LB medium overnight at 37° C. with shaking. Overnight cultures were 1:100 diluted to 5 ml ABTGC medium and incubator at 37° C. with shaking. Compound G1 was supplemented into the PAO1 cultures at final concentrations of 0, 50, 100 μM respectively. After 2 h incubation, 0.8 mL culture supernatants were sampled by centrifugation (18000 g, 4 min) and filtration through 0.2 micron filters. Elastase activity of P. aeruginosa culture supernatants was measured by using The EnzChekElastase Assay Kit (Invitrogen), which uses BODIPY-FL-labeled DQ elastin conjugate as the substrate of elastase. The BODIPY-FL-labeled DQ elastins conjugate when cleaved by elastase enzyme, yields highly fluorescent fragments. Fluorescence was recorded every 6 min for 180 min by using a Tecan Infinite 200 Pro plate reader (excitation at 490 nm, emission at 520 nm).

N=c1[nH]c(=O)c2nn[nH]c2[nH]1 [Compound G1, 5-imino-4,6-dihydro-3H-1,2,3-triazolo[5,4-d]pyrimidin-7-one]
relative fluorescence (GFP/OD600) (LasR; 320 nM OdDHL with 100 μM G1): 711.5
relative fluorescence (GFP/OD600) (LasR; 100 μM G1 and no OdDHL): 438.1
specific inhibition of LasR activity in the competition assay (LasR; E. coli lasB-gfp(ASV), with OdDHL): specifically inhibit LasR activity
concentration sufficient in inhibiting OdDHL-LasR induction of gfp expression (LasR; in the presence of 320 nM OdDHL): 1.56 µM
inhibition at 100 µM (LasR; read-out: inhibition as compared to the control without G1, 100 μM G1, in the absence of OdDHL): 30.2%
inhibition at 100 µM (LasR; read-out: inhibition as compared to the control without G1, 100 μM G1, in the presence of 320 nM OdDHL): 46.9%
IC50 of lasB-gfp expression, range in words ([1]; P. aeruginosa PAO1 lasB-gfp(ASV)): high nanomolar range
effect on cell growth ([1]; P. aeruginosa lasB-gfp(ASV) strain, OD600): without affecting cell growth
inhibition of LasR-controlled GFP expression ([1]; P. aeruginosa lasB-gfp(ASV) strain, 0.78125-50 μM): inhibit LasR-controlled GFP expression in a dose-dependent manner
pIC50 ([1]; Pseudomonas aeruginosa, PAO1, read-out: IC50 of lasB-gfp expression): 6.19
elastase production (elastase activity of culture supernatants) [2]: almost abolish elastase production
